Reference: patent US20250270227A1, “CAMPTOTHECIN DERIVATIVE, AND PHARMACEUTICAL COMPOSITION AND USE THEREOF” (SIMCERE ZAIMING PHARMACEUTICAL CO., LTD., priority 2021, published 2025)
Read-outs that look alike come from different tables or passages of the source.

How the values were obtained:
[1] = Membrane permeability and transport characteristics (Caco-2 Transwell); assay type: in vitro ADME; conditions: human, pH 7.4; for efflux ratio at 2 h, 10 μM: Caco-2, Papp (B-A)/Papp (A-B); for Papp A→B at 2 h, 10 μM: Caco-2, apical to basal; for Papp B→A at 2 h, 10 μM: Caco-2, basal to apical
Protocol: The membrane permeability and transport characteristics of the compounds of the present disclosure were determined by the following experimental method.
• 1. Caco-2 cells (ATCC) • 2. HEPES (Solarbio 804D049), penicillin/streptomycin (Solarbio 20200109) and PBS (Solarbio 20200620) • 3. Fetal bovine serum (FBS) (Sigma WXBD0055V), fluorescein (Sigma MKCJ3738) and NaHCO3 (Sigma SLBZ4647) • 4. Hank's balanced salt solution (HBSS) (Gibco 2085528), non-essential amino acid (NEAA) (Gibco 2211548) and Trypsin/EDTA (Gibco 2120732) • 5. High glucose DMEM (Corning 20319014) • 6. HTS Transwell-96 Well Permeable (Corning, 3391) • 7. Resistance tester (Millipore, Millicell® ERS-2) • 8. Cellometer® Vision (Nexcelom Bioscience) • 9. Infinite 200 PRO microplate reader (Tecan, Infinite M200PRO) • 10. Positive control compounds metoprolol (Sinopharm 100084-201403), erythromycin (MCE 84550) and cimetidine (Sinopharm 100158-201406) • 11. ABI QTrap 5500 liquid chromatography-mass spectrometry
• 1) Transport buffer (HBSS containing 25 mM HEPES, pH 7.4) was prepared: 5.958 g of HEPES and 0.35 g of NaHCO3 were accurately weighed, 900 mL of pure water was added to dissolve same, then 100 mL of 10×HBSS was added, uniform stirring was performed, the pH was adjust to 7.4, and filtering was performed. • 2) Caco-2 cell culture medium was prepared: FBS, penicillin/streptomycin, kanamycin and NEAA were added to high glucose DMEM (containing L-glutamine) medium to prepare a cell culture medium containing 10% FBS, 100 U/mL penicillin/0.1 mg/mL streptomycin, 0.6 μg/mL kanamycin and 1×NEAA. • 3) Cells were cultured in T-75 culture flasks in an incubator at 37° C. and 5% CO2, and the medium was discarded when the cell growth density reached 80-90%. The cells were rinsed with 5 mL of PBS, 1.5 mL of Trypsin/EDTA was added, then the cells were incubated in an incubator at 37° C. for 5-10 min until the cells fell off in the form of quicksand, and finally Trypsin/EDTA was neutralized with an FBS-containing medium. 4) The cell suspension was centrifuged at 120 g for 10 min, and the supernatant was discarded. • 5) The cell culture medium was added to re-suspend the cells to obtain a cell suspension with a density of […] cells/mL.
• 1) 50 μL of medium was added to each well of Transwell chamber, and 25 mL of medium was added to the lower layer. The Transwell chamber was preheated in an incubator at 37° C. and 5% CO2 for 1 h. • 2) 50 μL of the cell suspension was added to each well of the preheated Transwell chamber to a final seeding density of 2.4×10^5 cells/cm. • 3) The cells were cultured for 14-18 days, the medium was changed every other day, and the medium was changed within 48 h after the initial seeding in the plate. The medium must be changed one day before the experiment.
• 1) After 14 days of cell culture, the cells were fused and differentiated, ready for transport experiment. • 2) The resistance of monolayer cell membrane was measured by the resistance tester, and the resistance of each well was recorded. • 3) After the measurement was completed, the Transwell culture plate was re-incubated. • 4) The TEER value was calculated: […]

[2] = Plasma protein binding rate (equilibrium dialysis); assay type: in vitro ADME, human; conditions: pH 7.4
Protocol: The protein binding rates of the compounds of the present disclosure in human and mouse plasma were determined by the following experimental method.
• 1. Human plasma (BioIVT), CD-1 mouse plasma (BiolVT) • 2. Na2HPO4 (Sigma S5136-500G) • 3. NaH2PO4 (Sigma 53139-500G) • 4. NaCl (Sigma S5886-IKG) • 5. 96-well equilibrium dialysis plate (HTDialysis LLC, Gales Ferry, CT, HTD96B) and equilibrium dialysis membrane (MWCO 12-14K, 1101) • 6. Positive control compound warfarin • 7. ABI QTrap 5500 liquid chromatography-mass spectrometry
• 1. Preparation of a buffer with a concentration of 100 mM sodium phosphate and 150 mM NaCl: An alkaline solution with a concentration of 14.2 g/L Na2HPO4 and 8.77 g/L NaCl was prepared with ultrapure water, and an acidic solution with a concentration of 12.0 g/L NaH2PO4 and 8.77 g/L NaCl was prepared with ultrapure water. Then the alkaline solution was titrated to pH 7.4 with the acidic solution to prepare a buffer with a concentration of 100 mM sodium phosphate and 150 mM NaCl. • 2. Preparation of dialysis membrane: The dialysis membrane was soaked in ultrapure water for 60 min to separate the membrane into two pieces, then soaked in 20% ethanol for 20 min, and finally soaked in a buffer used for dialysis for 20 min. • 3. Preparation of plasma: The frozen plasma was quickly thawed at room temperature, and then centrifuged at 3220 g for 10 min at 4° C. to remove clots, and the supernatant was collected into a new centrifugal tube. The pH of the plasma was determined and recorded, and the plasma with pH of 7-8 was used. • 4. Preparation of compound-containing plasma samples: The 10 mM stock solution of the compound of the present invention or the positive control compound was diluted with DMSO to obtain a 200 μM working solution. To 597 μl of human or mouse plasma was added 3 μl of 200 μM compound working solution to obtain a plasma sample with a final concentration of 1 μM. • 5. […]
The peak areas of the compound on the buffer side and the plasma side were determined. […]

Compound	efflux ratio at 2 h, 10 μM [1]	Papp A→B at 2 h, 10 μM [1]	Papp B→A at 2 h, 10 μM [1]	fraction unbound at 6 h, 1 μM ([2]; human, plasma)	fraction unbound at 6 h, 1 μM ([2]; human plasma, 1 μM, equilibrium dialysis 6 h, 37° C., read-out: % Human plasma protein binding rate (converted))
[2H]C1([2H])Oc2cc3nc4c(c(CNC(=O)C(O)C5CC5)c3cc2O1)Cn1c-4cc2c(c1=O)COC(=O)[C@]2(O)CC (stereo partly drawn) [Compound 39, 2-cyclopropyl-N-(((S)-7-ethyl-7-hydroxy-8,11-dioxo-7,8,11,13-tetrahydro-10H-[1,3]dioxolo[4,5-g]pyrano[3′,4′:6,7]indolizino[1,2-b]quinolin-14-yl-2,2-d2)methyl)-2-hydroxyacetamide]	5.9	7.1 nm/s	42.1 nm/s	0.081	
CC[C@@]1(O)C(=O)OCc2c1cc1n(c2=O)Cc2c-1nc1cc3c(cc1c2CNC(=O)C(O)C1CC1)OCO3 (stereo partly drawn) [Compound 14, 2-cyclopropyl-N-(((S)-7-ethyl-7-hydroxy-8,11-dioxo-7,8,11,13-tetrahydro-10H-[1,3]dioxolo[4,5-g]pyrano[3′,4′:6,7]indolizino[1,2-b]quinolin-14-yl)methyl)-2-hydroxyacetamide]	15.2	2.6 nm/s	39.5 nm/s		
CC[C@@]1(O)C(=O)OCc2c1cc1n(c2=O)Cc2c-1nc1cc3c(c(F)c1c2CNC(=O)[C@@H](O)C1CC1)OCO3 (single isomer, unassigned) [Compound 37-P1]				0.128	
CC[C@@]1(O)C(=O)OCc2c1cc1n(c2=O)Cc2c-1nc1cc3c(cc1c2CNC(=O)C(O)C1CC1)OCO3 (single isomer, unassigned) [Compound 14-P1]					0.106
